The values that follow come from patent publication US20050239760A1, “Angiostatic agents and methods and compositions for controlling ocular hypertension” (Alcon, Inc., priority 2004, published 2005).

The subject of the experiment is choroidal neovascularization (CNV). Put plainly: Laser-induced choroidal neovascularization (CNV) in mice, rupture of Bruch's membrane. It is filed as in vivo, C57BL/J mice. To be noted: single 5 μl intravitreal injection immediately after laser, day 14 post-laser. An excerpt: Choroidal neovascularization (CNV) was induced in C57BL/J mice by rupturing Bruch's membrane via focal laser photocoagulation (FIG. 3). (Tobe T, et al., AM. J. PATHOL., 153:1641-1646 (1998)). Three to four retinal burns were placed in randomly assigned eye using the Alcon 532 nm EyeLite laser (75 μm spot size, 0.1 seconds duration, 120 mW) with a slit lamp delivery system. The laser bums were used to generate a rupture in Bruch's membrane, which was indicated ophthalmoscopically by the formation of a bubble under the retina. Only mice with laser burns that produced three bubbles per eye were included in the study. Burns were typically placed at the 3, 6, 9 or 12 o'clock positions in the posterior pole of the retina, avoiding the branch retinal arteries and veins.
Each mouse was randomly assigned into one of the following treatment groups after laser: noninjected controls, sham-injected controls, vehicle-injected mice, or one of three anecortave acetate-injected groups. Control mice received laser photocoagulation in both eyes, where one eye received a sham injection, i.e. a pars plana needle puncture. For intravitreal-injected animals, one laser-treated eye received a 5 μl intravitreal injection of 0%, 0.1%, 1%, or 10% anecortave acetate. The intravitreal injection was performed immediately after laser photocoagulation.
Fourteen days post-laser, all mice were euthanized and systemically perfused with fluorescein-labeled dextran. Eyes were then harvested and prepared as choroidal flat mounts, and the 2-dimensional CNV area was quantified with computerized digital analysis. (Mori K., et al., AM. J. PATHOL. 159:313-320 (2001)). The median CNV area/burn per mouse per treatment was used for statistical analysis; P≦0.05 was considered significant.

With `CC(=O)OCC(=O)[C@@]1(O)CC[C@H]2[C@@H]3CCC4=CC(=O)CC[C@]4(C)C3=CC[C@@]21C` [anecortave acetate, 4,9(11)-pregnadien-17α,21-diol-3,20-dione-21-acetate], the “CNV versus vehicle-injected controls” value is given as “No difference” (0.1% anecortave acetate) and “No difference” (1% anecortave acetate). Besides, the “inhibition of CNV (median CNV area/burn) as compared to vehicle-injected eyes” value (10% anecortave acetate, Mann-Whitney P<0.001) was found to be 57.8%.
